In US20030087942A1, “Method for the treatment and prevention of cachexia” (Washington University, priority 2001, published 2003):

Columns and labels:
LPS-induced weight loss = assay type: in vivo, mice (C3H/HeN)
Method: (§1) Animal housing. […] For pharmacological inhibitor studies, male C3H/HeN mice (Harlan Sprague Dawley, Inc., Indianapolis, Ind.) 10-12 wks of age were evaluated according to the method of Gross et al., Am J Physiol 278: R1415-23, 2000. See also Silver et al., J Clin Invest 95: 725-31, 1995. […] Control mice designated “WT” for the COX KO experiments were WT and heterozygous littermates arising from the COX-2 heterozygous matings. All mouse protocols were in accordance with NIH guidelines and approved by the Animal Care and Use Committee of Washington University School of Medicine.

IL-6 = assay: Plasma IL-6 after LPS (ELISA); assay type: in vivo, mice (C3H/HeN)
Source text: (§2) Serum corticosterone, leptin, and IL-6 measurements.

CRH mRNA = assay: Hypothalamic in situ mRNA hybridization, CRH; assay type: in vivo, mice (C3H/HeN); conditions: Compound 1/LPS group; 16 h after LPS with food withdrawal
Method: Hypothalamic in situ mRNA hybridization. […] After 24 h immersion in 4% paraformaldehyde, hypothalami were cryoprotected in 10% sucrose in DEPC D-PBS. Samples were embedded in OCT (Sakura Finetek USA, Inc., Torrance, Calif.), cut into 10 micron sections on a cryostat, and thaw mounted onto Superfrost plus slides (Fisher Scientific, Pittsburgh, Pa.). In situ hybridization utilized α-^33P-UTP-labelled 320 base anti-sense riboprobe from the mouse CRH gene or a 511 base anti-sense riboprobe from the rat neuropeptide Y (NPY) cDNA (generously provided by Dr. Steven Sabol, NHLBI, NIH) by methods described (e.g., Muglia et al., J Neurosci 19: 2051-8, 1999). For CRH and NPY mRNA detection, the regions of the hypothalamic paraventicular and arcuate nuclei were determined by Nissl staining and light microscopy. Six sections spanning each nucleus were hybridized to CRH (paraventricular nucleus) or NPY (arcuate nucleus) probes, and the two sections of peak intensity imaged for densitometric analysis. Hybridizing probes were quantitated by exposure of slides to Hyperfilm-βMax (Amersham Life Science, Inc., Arlington Heights, Ill.) with densitometric analysis employing NIH Image Software.

leptin = assay: Plasma leptin after LPS (ELISA); assay type: in vivo, mice (C3H/HeN); conditions: after LPS (3 h and 16 h)
Source text: as §2

[1] = 24 h period following LPS
Method: LPS-induced anorexia. C3H/HeN male mice were singly housed and acclimatized for at least 2 days to cages with grid bottoms prior to treatments. Body weight and food intake was measured daily until a stable baseline was obtained. Mice received either vehicle (phosphate buffered saline; PBS) or 100 μg of lipopolysaccharide (Escherichia coli 0111 :B4, Sigma, St. Louis, Mo.) in PBS via shallow midline, mid-abdominal, intraperitoneal injection. […] To determine the effect of COX inhibition, mice were pretreated with either vehicle (phosphate buffered saline plus 1% Tween 80), or vehicle plus agent 30 minutes prior to i.p. injection of LPS or vehicle, and re-dosed at 8 and 24 hrs after LPS. Cyclooxygenase inhibitors were administered via gavage using olive-tipped needles.

[2] = mouse, in vivo, 10 mg/kg
Method: as §1

NS(=O)(=O)c1ccc(-n2nc(C(F)(F)F)cc2-c2ccc(Cl)cc2)cc1 [Compound 1]
difference in weight loss between LPS-treated Compound 1 and Compound 2 groups (LPS-induced weight loss; 2 and 3 days after LPS treatment): remained significant | magnitude of early induction of plasma IL-6 vs. LPS alone (IL-6; 3 h after LPS): no change | sustained increases in plasma IL-6 vs. LPS alone (IL-6; 16 hours after LPS): no change | elevation of CRH mRNA in the paraventricular nucleus of the hypothalamus (CRH mRNA): approximately 3 fold | magnitude of induction of leptin, vehicle/LPS vs. Compound 1/LPS (leptin): did not differ | hypophagic response after LPS [1]: attenuated, but did not completely block the hypophagic response

COc1ccc(-n2nc(C(F)(F)F)cc2-c2ccc(Cl)cc2)cc1 [Compound 2]
body weight in comparison to the vehicle/LPS group (LPS-induced weight loss; 3 days after treatment, 300 μg/dose (10 mg/kg) gavage plus LPS): sustained weight reduction

COc1ccc2c(c1)c(CC(=O)O)c(C)n2C(=O)c1ccc(Cl)cc1 [indomethacin]
change in body weight relative to vehicle-treated control mice [2]: no change in body weight | weight loss associated with LPS administration, vs. vehicle/LPS (LPS-induced weight loss; 100 μg LPS i.p., gavage 30 min before, 8 and 24 h after LPS, indomethacin 150 μg/dose, Compound 1 300 μg/dose): tended to reduce the weight loss
